Measured values: patent US20050234113A1, “Antioxidant and radical scavenging activity of synthetic analogs of desferrithiocin” (University of Florida Research Foundation, Inc., priority 2002, published 2005)
Several values for one entry are separate records, joined by “and”; a condition that tells them apart may be missing. Equal values may be shown once. Entries after “also recorded” stand apart in the source; their conditions may differ. Read-outs that look alike come from different tables or passages of the source. Marks after values point to notes of the source that are not given here.

What was measured:
[1] = Prevention of iron-mediated oxidation of ascorbate (ascorbate-mediated reduction of Fe(III)); conditions: ascorbate 100 μM, FeCl3 30 μM, pH 7.4, ligand/Fe ratios 0-3, 40 min
[2] = test system: acetic acid-induced colitis; assay: Acetic acid-induced colitis in rats, densitometric image analysis of colonic damage; format: in vivo; conditions: for Damage (%): 650 μmol kg^−1 intracolonically 30 min before 4% acetic acid, mean ± standard deviation
Method: The ligands were administered to the rats intracolonically as a suspension or solution in distilled water (2 mL) at a dose of 650 μmol kg^−1. The drug solutions were made fresh for each experiment. ROWASA®, the pharmaceutical preparation which contains 5-ASA (2 mL, 66.7 mg mL^−1) was given at a dose of 2318 μmol kg^−1. Control rats received distilled water (2 mL), administered intracolonically.
Animal care and experimental procedures were approved by the Institutional Animal Care and Use Committee. Colitis was induced by a modification of published methods. Briefly, the rats were anesthetized with sodium pentobarbital, 55 mg kg^−1 intraperitoneally. The abdomen was shaved and prepared for surgery. A midline incision was made, and the cecum and proximal colon were exteriorized. A reversible suture was placed at the junction of the cecum and proximal colon. The colon was rinsed with saline (10 mL), and the fluid and intestinal contents were gently expressed out the rectum. A gum-based rectal plug was inserted. The compound of interest, or distilled water in the control animals (2 mL), was injected intracolonically just distal to the ligature. The cecum and proximal colon were returned to the abdominal cavity; the compound was allowed to remain in the gut for 30 min. Then, the cecum and proximal colon were reexteriorized. The rectal plug was removed, and the drug was gently expressed out of the colon. Acetic acid (4%, 2 mL) was injected into the proximal colon over a 15-20-second time period. The acid was allowed to remain in the gut until one minute had passed (i.e., 40-45 seconds after the end of the acid administration). The no acid control rats received distilled water (2 mL), which was administered in the same manner as was the acetic acid. Air (10 mL) was then injected into the proximal colon to expel the acid or water. The cecal/proximal colon ligature was removed, the gut was returned to the abdominal cavity, and the incisions were closed. The animals were allowed to recover overnight and were sacrificed 24 hr later. The entire length of the colon was removed and assessed for damage both densitometrically and biochemically.
Gross damage was quantitated using Photoshop-based image analysis (version 5.0, Adobe Systems, Mountain View, Calif., USA) on an Apple iMac computer. The Magic Wand tool in the Select menu of Photoshop was used to place the cursor on an area of obvious damage. The tolerance level of the Magic Wand tool was set at 30. The damaged areas were automatically selected by using the Similar command in the Select menu. Then, the Eyedropper tool was used to determine the range of the damage in the highlighted areas. Individual colon images were copied to a blank Photoshop page. The Magic Wand tool, with a tolerance set to 100, was used to select all of the pixels in the colon sample. Then, the Histogram tool, which generates a graph in which each vertical line represents the number of pixels associated with a brightness level, was selected in the Image menu. The Red channel was then selected; the darker (damaged areas) appear on the left side of the histogram and the lighter (normal) areas are on the right side. The cursor was then placed on the histogram, the color range determined in an earlier step was selected, and the number of pixels encompassing that range and the percent damage were quantified automatically.
Two means were employed to assess the damage to the colon in the presence and absence of ligand, computer-based image analysis and colonic MPO measurement. The densitometric method removes much of the subjectivity involved in the simple scoring approaches. A digital image of the prepared colonic tissue is taken, and a clearly damaged segment is highlighted on the screen. Once the computer identifies all other segments of the intestine with the same or greater damage, a pixel number is generated; this number makes it possible to calculate the percentage of damaged intestine.

iron [3] = conditions: cited from earlier work
iron [4] = conditions: cited from earlier work; remark: listed apart in the source
[5] = Quenching of the ABTS radical cation; conditions: Table 5; 6-min reaction, initial OD 1.000
[6] = 150 μmol/kg po (footnote d: dose administered, 300 μmol/kg)
[7] = 150 μmol/kg sc, suspension in water, n = 3
[8] = 300 μmol/kg po, in 40% Cremophor

## CC(=O)N(O)CCCCCNC(=O)CCC(=O)N(O)CCCCCNC(=O)CCC(=O)N(O)CCCCCN [DFO, Desferrioxamine B, reference compound]
[1]
  effect on ascorbate-mediated reduction of Fe(III) (in words): inhibited; also recorded: significant inhibition
[2]
  Damage (%): 39 ± 15%
Iron [3]; 150 μmol/kg po, n = 3
  % bile (of iron excreted), rodents: 87%
  % urine (of iron excreted), rodents: 13%
  efficiency in rodents (%): 1.1 ± 0.6^c %
Iron [3]; 150 μmol/kg sc, n = 6
  % bile (of iron excreted), rodents: 75%
  % urine (of iron excreted), rodents: 25%
  efficiency in rodents (%): 2.8 ± 0.7%
Iron [4]; [6]
  % stool (of iron excreted), monkeys: 55%
  % urine (of iron excreted), monkeys: 45%
  efficiency in monkeys (%): 0.1±0.4% and 0.1 ± 0.4^d %
Iron [4]; 150 μmol/kg sc, n = 5
  % stool (of iron excreted), monkeys: 45%
  % urine (of iron excreted), monkeys: 55%
  efficiency in monkeys (%): 5.5±0.9%

## O=C(O)[C@H]1CSC(c2ccc(O)cc2O)=N1 [4′-(HO)-DADMDFT, 4′-hydroxydesazadesmethyldesferrithiocin]
[1]
  effect on ascorbate-mediated reduction of Fe(III) (in words): significant protection
[2]
  Damage (%): 57 ± 15%
[2]; intracolonic, image analysis and MPO assay
  protection against acetic acid-induced colonic damage (in words): ineffective
[5]
  Slope × 10^3 OD units/μM (ABTS radical cation quenching): −102 × 10^3 OD units/μM
Iron [4]; [7]
  % stool (of iron excreted), monkeys: 92%
  % urine (of iron excreted), monkeys: 8%
  efficiency in monkeys (%): 5.6±0.9% and 5.6 ± 0.9^f %
Iron [4]; [8]
  % stool (of iron excreted), monkeys: 90%
  % urine (of iron excreted), monkeys: 10%
  efficiency in monkeys (%): 5.3±1.7% and 5.3 ± 1.7^f %
